Patent publication US20170137426A1, “HETEROCYCLIC COMPOUNDS AS AXL INHIBITORS” (CHANGZHOU JIEKAI PHARMATECH CO., LTD., priority 2014, published 2017)

Target: T1, human AXL (Homo sapiens, UniProt P30530)
T1 construct: his-tagged catalytic domain (amino acids 473-894) from insect cells; His tag; purchased Invitrogen PV3971; host or cells: insect cells
T1 sequence (P30530 473-894): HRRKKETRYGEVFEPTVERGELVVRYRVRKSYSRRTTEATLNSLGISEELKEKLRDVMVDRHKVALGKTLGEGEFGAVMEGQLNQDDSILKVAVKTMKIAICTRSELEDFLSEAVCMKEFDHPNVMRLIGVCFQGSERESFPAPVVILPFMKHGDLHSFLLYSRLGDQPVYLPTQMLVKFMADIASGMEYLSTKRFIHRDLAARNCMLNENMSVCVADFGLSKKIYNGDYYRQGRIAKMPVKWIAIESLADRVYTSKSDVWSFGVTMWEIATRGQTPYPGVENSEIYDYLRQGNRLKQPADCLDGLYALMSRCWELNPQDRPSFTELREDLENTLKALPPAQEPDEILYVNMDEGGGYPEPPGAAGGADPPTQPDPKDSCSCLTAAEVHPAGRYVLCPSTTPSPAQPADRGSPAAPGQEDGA
Assay: AXL enzymatic assay (LanthaScreen TR-FRET)
Assay type: biochemical
Details: recombinant his-tagged catalytic domain (aa 473-894), 18 μM ATP (around Km), 200 nM Poly GT substrate, 1 h reaction
Description: Example 3: AXL Enzymatic Assay
Compounds were tested in a LanthaScreen™ time-resolved fluorescence energy transfer (TR-FRET) enzymatic assay from Invitrogen. The assay used human AXL (Invitrogen, Cat. PV3971) recombinantly expressed his-tagged catalytic domain (amino acids 473-894) from insect cells. The substrate was fluorescein-labeled Poly GT (Invitrogen, Cat. PV3610). Test compounds were prepared and diluted in DMSO in 3-fold serial dilutions to 100× of the final testing concentrations. The compounds were then further diluted to 4× by the kinase reaction buffer (Invitrogen, Cat. PV3189). The enzymatic reaction for compound testing was performed in a white 384-well polypropylene plate (Packard, Cat. 6005214) with a total reaction volume of 10 μl containing 200 ng/ml AXL, 200 nM substrate, and 18 μM ATP that is around its Km. The assay started with loading 2.5 μl of AXL diluted in kinase reaction buffer to wells, followed by addition of equal volume of 4× compounds for 15-min incubation at the room temperature for pre-treatment. The enzymatic reaction was initiated by addition of 5 μl of mixture of the substrate and ATP prepared in kinase reaction buffer. After one hour reaction, 10 μl mixture of EDTA (final 10 mM) and terbium-labeled anti-PY20 antibody (final 2 nM) (Invitrogen, Cat. PV3552) prepared in TR-FRET antibody dilution buffer (Invitrogen, Cat. PV3574) was added to stop the enzymatic reaction and produce TR-FRET signals. After 30 minutes of incubation at room temperature, the plate was read in Tecan Infinite F200 Pro with the following settings: Excitation 340 nm (30)/Emission1 495 nm (10)/Emission2 520 nm (25). The TR-FRET values were dimensionless numbers that were calculated as the ratio of the acceptor ([…]) signal to the donor (Terbium) signal. Percent of control was calculated as the percentage of compound-treated vs 1% DMSO vehicle-treated. The dose-response curves were generated and the IC50s were calculated by nonlinear sigmoid curve fitting using GraphPad Prism.

Row | IC50 [nM] | SMILES
1 | 50 to 200 | CC(C)Oc1cccc(-n2ccc3cnc(Nc4ccc5c(c4)CCC(N4CCCC4)CC5)nc32)c1 (stereo not drawn) [Compound 3, 7-(3-isopropoxyphenyl)-N-(7-(pyrrolidin-1-yl)-6,7,8,9-tetrahydro-5H-benzo[7]annulen-2-yl)-7H-pyrrolo[2,3-d]pyrimidin-2-amine]
2 | < 25 | Cc1ccccc1Oc1ccccc1-n1ccc2cnc(Nc3ccc4c(c3)CCC(N3CCCC3)CC4)nc21 (stereo not drawn) [Compound 6, N-(7-(pyrrolidin-1-yl)-6,7,8,9-tetrahydro-5H-benzo[7]annulen-2-yl)-7-(2-(o-tolyloxy)phenyl)-7H-pyrrolo[2,3-d]pyrimidin-2-amine]
3 | > 1000 | c1ccc(-c2ccc(-n3ccc4cnc(Nc5ccc6c(c5)CCC(N5CCCC5)CC6)nc43)cc2)cc1 (stereo not drawn) [Compound 8, 7-([1,1′-biphenyl]-4-yl)-N-(7-(pyrrolidin-1-yl)-6,7,8,9-tetrahydro-5H-benzo[7]annulen-2-yl)-7H-pyrrolo[2,3-d]pyrimidin-2-amine]
4 | 50 to 200 | COc1ccc(-n2ccc3cnc(Nc4ccc5c(c4)CCC(N4CCCC4)CC5)nc32)c(OC(C)C)c1 (stereo not drawn) [Compound 9, 7-(2-isopropoxy-4-methoxyphenyl)-N-(7-(pyrrolidin-1-yl)-6,7,8,9-tetrahydro-5H-benzo[7]annulen-2-yl)-7H-pyrrolo[2,3-d]pyrimidin-2-amine]
5 | 200 to 400 | CC(C)Oc1cccnc1-n1ccc2cnc(Nc3ccc4c(c3)CCC(N3CCCC3)CC4)nc21 (stereo not drawn) [Compound 13, 7-(3-isopropoxypyridin-2-yl)-N-(7-(pyrrolidin-1-yl)-6,7,8,9-tetrahydro-5H-benzo[7]annulen-2-yl)-7H-pyrrolo[2,3-d]pyrimidin-2-amine]

More lines, now with the values behind:

Row | SMILES | IC50 [nM]
6 | CC(C)Oc1ccccc1-n1ccc2cnc(Nc3ccc4c(c3)CCC(N3CCCC3)CC4)nc21 (stereo not drawn) [Compound 1, 7-(2-isopropoxyphenyl)-N-(7-(pyrrolidin-1-yl)-6,7,8,9-tetrahydro-5H-benzo[7]annulen-2-yl)-7H-pyrrolo[2,3-d]pyrimidin-2-amine] | 25 to 50
7 | CC(C)Oc1ccccc1-n1ccc2cnc(Nc3cnn(C4CCN(C)CC4)c3)nc21 [Compound 2, 7-(2-isopropoxyphenyl)-N-(1-(1-methylpiperidin-4-yl)-1H-pyrazol-4-yl)-7H-pyrrolo[2,3-d]pyrimidin-2-amine] | 700 to 800
8 | c1ccc(-n2ccc3cnc(Nc4ccc5c(c4)CCC(N4CCCC4)CC5)nc32)c(OC2CCCCC2)c1 (stereo not drawn) [Compound 4, 7-(2-(cyclohexyloxy)phenyl)-N-(7-(pyrrolidin-1-yl)-6,7,8,9-tetrahydro-5H-benzo[7]annulen-2-yl)-7H-pyrrolo[2,3-d]pyrimidin-2-amine] | 200 to 400
9 | c1ccc(Oc2ccccc2-n2ccc3cnc(Nc4ccc5c(c4)CCC(N4CCCC4)CC5)nc32)cc1 (stereo not drawn) [Compound 5, 7-(2-phenoxyphenyl)-N-(7-(pyrrolidin-1-yl)-6,7,8,9-tetrahydro-5H-benzo[7]annulen-2-yl)-7H-pyrrolo[2,3-d]pyrimidin-2-amine] | 700 to 800
10 | CC(C)Oc1ccc(-n2ccc3cnc(Nc4ccc5c(c4)CCC(N4CCCC4)CC5)nc32)cc1 (stereo not drawn) [Compound 7, 7-(4-isopropoxyphenyl)-N-(7-(pyrrolidin-1-yl)-6,7,8,9-tetrahydro-5H-benzo[7]annulen-2-yl)-7H-pyrrolo[2,3-d]pyrimidin-2-amine] | 25 to 50
11 | CC(C)Oc1cc(Cl)ccc1-n1ccc2cnc(Nc3ccc4c(c3)CCC(N3CCCC3)CC4)nc21 (stereo not drawn) [Compound 10, 7-(4-chloro-2-isopropoxyphenyl)-N-(7-(pyrrolidin-1-yl)-6,7,8,9-tetrahydro-5H-benzo[7]annulen-2-yl)-7H-pyrrolo[2,3-d]pyrimidin-2-amine] | < 25
12 | CC(C)NC(=O)c1ccccc1-n1ccc2cnc(Nc3ccc4c(c3)CCC(N3CCCC3)CC4)nc21 (stereo not drawn) [Compound 11, N-isopropyl-2-(2-((7-(pyrrolidin-1-yl)-6,7,8,9-tetrahydro-5H-benzo[7]annulen-2-yl)amino)-7H-pyrrolo[2,3-d]pyrimidin-7-yl)benzamide] | > 1000
13 | Cc1ccccc1-c1ccc(-n2ccc3cnc(Nc4ccc5c(c4)CCC(N4CCCC4)CC5)nc32)cc1 (stereo not drawn) [Compound 12, 7-(2′-methyl-[1,1′-biphenyl]-4-yl)-N-(7-(pyrrolidin-1-yl)-6,7,8,9-tetrahydro-5H-benzo[7]annulen-2-yl)-7H-pyrrolo[2,3-d]pyrimidin-2-amine] | 25 to 50
14 | CC(C)Oc1cc(-c2ccccc2)ccc1-n1ccc2cnc(Nc3ccc4c(c3)CCC(N3CCCC3)CC4)nc21 (stereo not drawn) [Compound 14, 7-(3-isopropoxy-[1,1′-biphenyl]-4-yl)-N-(7-(pyrrolidin-1-yl)-6,7,8,9-tetrahydro-5H-benzo[7]annulen-2-yl)-7H-pyrrolo[2,3-d]pyrimidin-2-amine] | 200 to 400
15 | CC(C)Oc1ccccc1-n1ccc2cnc(Nc3ccc4c(c3)CCN(C)CC4)nc21 [Compound 15, N-(7-(2-isopropoxyphenyl)-7H-pyrrolo[2,3-d]pyrimidin-2-yl)-3-methyl-2,3,4,5-tetrahydro-1H-benzo[d]azepin-7-amine] | 200 to 400
